IC50 data for 32 compounds are collected here from patent US12275729B2 (Merck Sharp & Dohme LLC, priority 2017, dated 2025).

In general, IC50 refers to the concentration at which inhibition is half-maximal.

One experiment deals with IDO1 (Homo sapiens, UniProt P14902). Briefly: IDO1 Cellular Assay in HeLa Cells Stimulated with IFNγ. Format: cell-based. As to conditions: about 48 hours, read-out: Hela IC50. The method, then: Biological Assays IDO1 Cellular Assay in HeLa Cells Stimulated with IFNγ
IDO1, sequence (P14902 whole entry): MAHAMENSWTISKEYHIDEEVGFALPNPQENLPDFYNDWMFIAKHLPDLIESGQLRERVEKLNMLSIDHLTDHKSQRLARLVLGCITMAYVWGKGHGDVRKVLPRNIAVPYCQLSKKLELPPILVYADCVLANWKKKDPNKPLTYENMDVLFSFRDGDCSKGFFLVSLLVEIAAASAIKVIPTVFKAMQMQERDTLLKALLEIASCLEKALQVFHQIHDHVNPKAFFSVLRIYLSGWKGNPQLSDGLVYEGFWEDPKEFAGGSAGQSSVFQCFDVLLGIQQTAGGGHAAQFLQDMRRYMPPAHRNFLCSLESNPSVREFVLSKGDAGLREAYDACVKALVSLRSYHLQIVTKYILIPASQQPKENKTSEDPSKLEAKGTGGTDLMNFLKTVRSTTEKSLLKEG
HeLa cells were cultured in complete HeLa culture medium (90% EMEM, 10% heat-inactivated fetal bovine serum) and expanded to about 1×10^9 cells. The cells were then collected and frozen down at 1×10^7 cells/vial in 1 mL frozen medium (90% complete HeLa culture medium, 10% DMSO).
Compounds to be tested were serially diluted in ten 3-fold steps in DMSO starting from 10 mM DMSO stocks in Echo low volume plate(s).
Frozen HeLa cells were thawed and transferred into HeLa assay medium (99% complete HeLa culture medium, 1% Pen/Strep) with 20 mL medium/vial of cells. The cells were spun down at 250 g in a table top centrifuge for 5 min and suspended in same volume of HeLa assay medium. The cells were then counted and adjusted to a density of 2×10^5 cells/mL in HeLa assay medium. Sterile L-tryptophan were added to the cells with final concentration of 300 uM L-tryptophan. A small aliquot (2 mL/plate) of HeLa cells were set aside and were not treated with IFNγ, to serve as the Max-E control.
HeLa cells with and without IFNγ were dispensed to the respective wells of 384-well assay plates containing the compounds. The plates were incubated for about 48 hours at a 37° C., 5% CO2 incubator. Afterwards, 12 μL of 0.5 M methyl isonipecotate in dimethyl sulfoxide were added into each well and the plates were sealed and incubated at 37° C. without CO2 overnight. The plates were centrifuged for 1 min at 200×g. The resulting fluorescence was measured in a Spectramax plate reader (Molecular Devices) with a 400 nm excitation filter and a 510 nm emission filter.
Potencies were calculated by […] least squares fit to the four parameter logistic IC50 equation.
Consider `C[C@H](NC(=O)c1ccc(F)cn1)c1ccc2c(c1)CCCN2C(=O)C1(F)CC1` (single isomer, unassigned) [Example 34], for which the IC50 came out at 800 nM.

As for `CC(NC(=O)c1ccc(F)cc1)c1ccc2c(n1)CCCN2C(=O)c1ccccn1` (centres unmarked) [Example 280, 2-(1-(4-fluorobenzamido)ethyl)-5-picolinoyl-5,6,7,8-tetrahydro-1,5-naphthyridin-1-ium 2,2,2-trifluoroacetate], the IC50 is 7 nM.

As to `CC(NC(=O)c1ccc(F)cc1)c1ccc2c(n1)CCCN2C(=O)C1(C)CCCCO1` (stereo in doubt) [Example 140, 4-fluoro-N-(1-{5-[(2R)-2-methyloxane-2-carbonyl]-5,6,7,8-tetrahydro-1,5-naphthyridin-2-yl}ethyl)benzamide], the IC50 amounted to 1620 nM.

`CC(C(=O)Nc1ccc(F)cc1)c1ccc2c(c1)CCCN2C(=O)c1cnco1` (centres unmarked) [Example 49, N-(4-fluorophenyl)-2-[1-(1,3-oxazole-5-carbonyl)-1,2,3,4-tetrahydroquinolin-6-yl]propanamide]: the IC50 stood at 30 nM.

Consider `COC(=O)N1CCCc2nc(C3(C(=O)Nc4ccc(F)cc4)CC3)ccc21` [Example 222, methyl 6-{1-[(4-fluorophenyl)carbamoyl]cyclopropyl}-3,4-dihydro-1,5-naphthyridine-1(2H)-carboxylate], for which the IC50 is 21.8 nM.

With `COC(=O)N1CCCc2nc(C3(NC(=O)c4ccc(Cl)cc4)CCC3)ccc21` [Example 219, methyl 6-{1-[(4-chlorobenzene-1-carbonyl)amino]cyclobutyl}-3,4-dihydro-1,5-naphthyridine-1(2H)-carboxylate], the IC50 stood at 9.9 nM.

For `CC(C)(C(=O)Nc1ccc(F)cc1)c1ccc2c(n1)CCCN2C(=O)c1cccc(Cl)c1` [Example 188, 2-[5-(3-chlorobenzene-1-carbonyl)-5,6,7,8-tetrahydro-1,5-naphthyridin-2-yl]-N-(4-fluorophenyl)-2-methylpropanamide], the IC50 is 5.7 nM.

For the compound `CC(C)CC(=O)NCc1ccc2c(c1)CCCN2C(=O)c1cccc(Cl)c1` [Example 17, N-{[1-(3-chlorobenzene-1-carbonyl)-1,2,3.4-tetrahydroquinolin-6-yl]methyl}-3-methylbutanamide], the IC50 turned out to be 702 nM.

Consider `C[C@H](NC(=O)c1ccc(F)cc1)c1ccc2c(c1)CCCN2C(=O)C1(F)CC1` (single isomer, unassigned) [Example 32], for which the IC50 was determined as 27.5 nM.

On to `O=C(NC1(c2ccc3c(n2)CCCN3C(=O)C2CCCCO2)CC1)c1ccc(F)cc1` (centres unmarked) [Example 170, 4-fluoro-N-{1-[5-(oxane-2-carbonyl)-5,6,7,8-tetrahydro-1,5-naphthyridin-2-yl]cyclopropyl}benzamide], for which the IC50 stood at 2.4 nM.

On to `C[C@H](C(=O)Nc1ccc(F)cc1)c1ccc2c(c1)CCCN2C(=O)CC1CC1` [Example 82, (2S)-2-[1-(cyclopropylacetyl)-1,2,3,4-tetrahydroquinolin-6-yl]-N-(4-fluorophenyl)propanamide], for which the IC50 stood at 10.9 nM.

As for `C[C@H](C(=O)Nc1ccc(F)cn1)c1ccc2c(c1)CCCN2C(=O)c1cccc(Cl)c1` (single isomer, unassigned) [Example 54], the IC50 was 18 nM.

With `CC(NC(=O)c1ccc(Cl)cc1)c1ccc2c(n1)OCCN2C(=O)c1ccccc1` (racemic) [Example 253, N-(1-(1-benzoyl-2,3-dihydro-1H-pyrido[2,3-b][1,4]oxazin-6-yl)ethyl)-4-chlorobenzamide], the IC50 was determined as 3.5 nM.

Turning to `Cc1cc(C(=O)NCc2ccc3c(c2)CCCN3C(=O)c2cccc(Cl)c2)on1` [Example 20, N-{[1-(3-chlorobenzene-1-carbonyl)-1,2,3,4-tetrahydroquinolin-6-yl]methyl}-3-methyl-1,2-oxazole-5-carboxamide], the IC50 is 59.6 nM.

Regarding `C[C@H](C(=O)Nc1ccc(F)cc1)c1ccc2c(c1)CCCN2C(=O)C1CN(C)CCO1` (stereo partly drawn) [Example 74, (2S)-N-(4-fluorophenyl)-2-[1-(4-methylmorpholine-2-carbonyl)-1,2,3,4-tetrahydroquinolin-6-yl]propanamide], the IC50 worked out at 460 nM.

Consider `COC(C(=O)Nc1ccc(F)cn1)c1ccc2c(c1)CCCN2C(=O)C1CC1` (centres unmarked) [Example 155, 2-(1-(cyclopropanecarbonyl)-1,2,3,4-tetrahydroquinolin-6-yl)-N-(5-fluoropyridin-2-yl)-2-methoxyacetamide], for which the IC50 amounted to 273 nM.

For `Cc1nc(C(=O)N2CCCc3cc(C(C)C(=O)Nc4ccc(F)cc4)ccc32)no1` (centres unmarked) [Example 47, N-(4-fluorophenyl)-2-[1-(5-methyl-1,2,4-oxadiazole-3-carbonyl)-1,2,3,4-tetrahydroquinolin-6-yl]propanamide], the IC50 amounted to 3.4 nM.

`CC(NC(=O)c1ccc(F)cc1)c1ccc2c(n1)C(O)CCN2C(=O)C1CC1` (single isomer, unassigned) [Example 197, N-(1-(5-(cyclopropanecarbonyl)-8-hydroxy-5,6,7,8-tetrahydro-1,5-naphthyridin-2-yl)ethyl)-4-fluorobenzamide]: the IC50 came to 290 nM.

Consider `C[C@@H](NC(=O)c1ccc(F)cc1)c1ccc2c(c1)CCCN2C(=O)C1(F)CC1` (single isomer, unassigned) [Example 31], for which the IC50 amounted to 1230 nM.

On to `Cc1nccc(N2CCCc3nc(C4(C(=O)Nc5ccc(F)cc5)CCC4)ccc32)n1` [Example 403, N-(4-fluorophenyl)-1-(5-(2-methylpyrimidin-4-yl)-5,6,7,8-tetrahydro-1,5-naphhyridin-2-yl)cyclobutane-1-carboxamide], for which the IC50 was 2.15 nM.

On to `CC(NC(=O)c1ccc(Cl)cc1)c1ccc2c(n1)CCCN2C(=O)C1CC1` (single isomer, unassigned) [Example 126, 4-chloro-N-{1-[5-(cyclopropanecarbonyl)-5,6,7,8-tetrahydro-1,5-naphthyridin-2-yl]ethyl}benzamide], for which the IC50 amounted to 617 nM.

Take `CN(C)C(=O)N1CCCc2cc(C3(C(=O)Nc4ccc(F)cn4)CCC3)ccc21` [Example 102, 6-{1-[(5-fluoropyridin-2-yl)carbamoyl]cyclobutyl}-N,N-dimethyl-3,4-dihydroquinoline-1(2H)-carboxamide]: the IC50 was found to be 149 nM.

As for `CC(C(=O)Nc1ccc(F)cc1)c1ccc2c(c1)CCCN2C(=O)C1CCCO1` (centres unmarked) [Example 39, N-(4-fluorophenyl)-2-[1-(oxolane-2-carbonyl)-1,2,3,4-tetrahydroquinolin-6-yl]propanamide], the IC50 stood at 5.4 nM.

For `Cc1noc(C(=O)N2CCCc3cc(C(C)C(=O)Nc4ccc(F)cc4)ccc32)n1` (centres unmarked) [Example 43, N-(4-fluorophenyl)-2-[1-(3-methyl-1H-1,2,4-oxadiazole-5-carbonyl)-1,2,3,4-tetrahydroquinolin-6-yl]propanamide], the IC50 was 4.2 nM.

`CC(NC(=O)c1ccc(F)cc1)c1ccc2c(n1)CCCN2C(=O)C1(C)CCCCO1` (stereo in doubt) [Example 139, 4-fluoro-N-(1-{5-[(2S)-2-methyloxane-2-carbonyl]-5,6,7,8-tetrahydro-1,5-naphthyridin-2-yl}ethyl)benzamide]: the IC50 came out at 348 nM.

For the compound `Cc1cccc(C(=O)N2CCCc3nc(C(C)NC(=O)c4ccc(F)cc4)ccc32)n1` (centres unmarked) [Example 281, 2-(1-(4-fluorobenzamido)ethyl)-5-(6-methylpicolinoyl)-5,6,7,8-tetrahydro-1,5-naphthyridin-1-ium 2,2,2-trifluoroacetate], the IC50 turned out to be 3 nM.

Take `CS(=O)(=O)N1CCCc2cc(C3(C(=O)Nc4ccc(F)cn4)CCC3)ccc21` [Example 123, N-(5-fluoropyridin-2-yl)-1-[1-(methylsulfonyl)-1,2,3,4-tetrahydroquinolin-6-yl]cyclobutane-1-carboxamide]: the IC50 came to 34.1 nM.

For `O=C(Nc1ccc(F)cn1)C1(c2ccc3c(c2)CCCN3S(=O)(=O)N2CCCC2)CCC1` [Example 122, N-(5-fluoropyridin-2-yl)-1-{1-[(pyrrolidin-1-yl)sulfonyl]-1,2,3,4-tetrahydroquinolin-6-yl}cyclobutane-1-carboxamide], the IC50 was found to be 67.1 nM.

Staying with this experiment, now noted: read-out: Hela IC50.
With `CC(NC(=O)c1ccc(F)cc1)c1ccc2c(n1)CCCN2C(=O)OCCn1ccnc1` (centres unmarked) [Example 328, 2-(1H-imidazol-1-yl)ethyl 6-(1-(4-fluorobenzamido)ethyl)-3,4-dihydro-1,5-naphthyridine-1(2H)-carboxylate], the IC50 was found to be 479 nM.

On to `Cc1nccc(N2CCCc3nc(C(C)C(=O)Nc4ccc(F)cc4)ccc32)n1` (centres unmarked) [Example 373, N-(4-fluorophenyl)-2-(5-(2-methylpyrimidin-4-yl)-5,6,7,8-tetrahydro-1,5-naphthyridin-2-yl)propanamide], for which the IC50 is 6.38 nM.

As for `CC(NC(=O)c1ccc(F)cc1)c1ccc2c(n1)CCCN2c1ncccc1F` (centres unmarked) [Example 375, 4-fluoro-N-(1-(5-(3-fluoropyridin-2-yl)-5,6,7,8-tetrahydro-1,5-naphthyridin-2-yl)ethyl)benzamide], the IC50 was found to be 1530 nM.

On to `CC(NC(=O)c1ccc(F)cc1)c1ccc2c(n1)CCCN2C(=O)OCC1CCO1` (centres unmarked) [Example 313, oxetan-2-ylmethyl 6-(1-(4-fluorobenzamido)ethyl)-3,4-dihydro-1,5-naphthyridine-1(2H)-carboxylate], for which the IC50 is 45.3 nM.
